{"source": "patent US8404677B2", "about": "“Kinase inhibitors” (Genosco, priority 2009, dated 2013)", "key": {"human PIM1": {"molecular_target": "T1, human PIM1 (Homo sapiens, UniProt P11309)", "T1 construct": "Purified full-length human SYK, ZAP70, PIM1, PYK2; purchased Carna Biosciences", "test": "Inhibition of enzymatic kinase activity (LANCE Ulight)", "type": "biochemical", "details": "at 1 μM concentration; read-out: PIM1 percentage inhibition", "protocol": "Inhibition of Enzymatic SYK, ZAP70, PYK2, FAK, PIM1, RET, FLT3, JAK2 and LRRK2 Kinase Activity\nCompounds of the invention were initially diluted to 10 mM in 100% DMSO (CALBIOCHEM™) for storage and made into kinase buffer solution to create a compound concentration ranging from 1 uM and 10 uM. Serial dilutions of compounds of the invention were dispensed into a 96-well plate (GREINER BIOSCIENCES™) at 6 μL each. Purified full-length human SYK, ZAP70, PIM1, PYK2 and truncated human FAK, RET, FLT3, JAK2, and LRRK2 (CARNA BIOSCIENCES™) were diluted in kinase buffer and added to the compound solutions and pre-incubated for 30 minutes at room temperature (1 hour for PYK2). […] The reaction mixture was incubated for 1 hour (2 hours for PYK2). Following the incubation, the stop solution made with EDTA, water, and Lance detection buffer ([…]™) was added (12 μL each) to stop phosphorylation. […] Substrate phosphorylation was a function of the 665 nm emission measured following the addition of the detection solution and 50 minutes of incubation."}, "HS 578T": {"system": "HS 578T", "test": "cells", "type": "cell-based", "details": "HS 578T (Breast Cancer)"}, "CSF1R": {"molecular_target": "T2, CSF1R (Homo sapiens, UniProt P07333)", "T2 construct": "purchased Ambit Biosciences", "test": "In vitro kinase inhibition, Ambit Biosciences panel", "type": "binding", "details": "lower numbers indicate stronger activities", "protocol": "(§1) Up to 518 different kinases have been identified in humans. They act on small molecules such as lipids, carbohydrates, amino acids, and nucleotides. To determine the scope of inhibitory effects of a representative compound of Formula (I) on known kinases, Compound 6 was tested against 104 commercially available kinases (Ambit Biosciences™) in vitro. 104 kinases included ABL1(E255K)-phosphorylated, ABL1(T315I)-phosphorylated, ABL1-phosphorylated, ACVR1B, ADCK3, AKT1, AKT2, ALK, AURKA, AURKB, AXL, BMPR2, BRAF, BRAF(V600E), BTK, CDK11, CDK2, CDK3, CDK7, CDK9, CHEK1, CSF1R, CSNK1D, CSNK1G2, DCAMKL1, DYRK1B, EGFR, EGFR(L858R), EPHA2, ERBB2, ERBB4, ERK1, FAK, FGFR2, FGFR3, FLT1, FLT3, FLT4, GSK3B, IGF1R, IKK-α, IKK-β, INSR, JAK2(JH1domain-catalytic), JAK3(JH1domain-catalytic), JNK1, JNK2, JNK3, KIT, KIT(D816V), KIT(V559D,T670I), LKB1, LRRK2, LRRK2(G2019S), MAP3K4, MAPKAPK2, MARK3, MEK1, MEK2, MET, MKNK1, MKNK2, MLK1, MTOR, p38-alpha, p38-beta, PAK1, PAK2, PAK4, PCTK1, PDGFRA, PDGFRB, PDPK1, PIK3C2B, PIK3CA, PIK3CG, PIM1, PIM2, PIM3, PKAC-alpha, PLK1, PLK3, PLK4, PRKCE, PYK2, RAFT, RET, RIOK2, ROCK2, RSK2, SNARK, SRC, SRPK3, SYK, TAK1, TGFBR1, TIE2, TRKA, TSSK1B, TYK2(JH1domain-catalytic), ULK2, VEGFR2, YANK3 and ZAP70.\n(§2) Inhibition activity of Compound 6 was reported as percent control where lower numbers indicate stronger activities. […] Conventionally, the percent control of less than 35 is deemed to be significant inhibition of kinase activity as the numeric value 35 is frequently used as a threshold."}, "PLK4": {"molecular_target": "T3, PLK4 (Homo sapiens, UniProt O00444)", "T3 construct": "purchased Ambit Biosciences", "test": "In vitro kinase inhibition, Ambit Biosciences panel", "type": "binding", "details": "lower numbers indicate stronger activities", "protocol": "as §1, §2"}, "RSK2": {"molecular_target": "T4, RSK2 (Homo sapiens, UniProt P51812)", "T4 construct": "RSK2 (Kin.Dom.1-N-terminal); purchased Ambit Biosciences", "T4 sequence (P51812 68-327 limits assumed)": "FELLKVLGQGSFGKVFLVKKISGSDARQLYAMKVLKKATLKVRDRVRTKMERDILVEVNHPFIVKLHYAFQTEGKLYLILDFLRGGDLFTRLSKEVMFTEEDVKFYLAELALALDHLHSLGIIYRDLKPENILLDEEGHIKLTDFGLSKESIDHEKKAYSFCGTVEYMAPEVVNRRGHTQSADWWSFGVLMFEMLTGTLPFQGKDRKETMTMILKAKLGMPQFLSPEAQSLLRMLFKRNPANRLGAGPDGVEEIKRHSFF", "test": "In vitro kinase inhibition, Ambit Biosciences panel", "type": "binding", "details": "lower numbers indicate stronger activities", "protocol": "as §1, §2"}, "RET": {"molecular_target": "T5, RET (Homo sapiens, UniProt P07949)", "T5 construct": "purchased Ambit Biosciences", "test": "In vitro kinase inhibition, Ambit Biosciences panel", "type": "binding", "details": "lower numbers indicate stronger activities", "protocol": "as §1, §2"}, "JAK2": {"molecular_target": "T6, JAK2 (Homo sapiens, UniProt O60674)", "T6 construct": "JAK2(JH1domain-catalytic), JAK3(JH1domain-catalytic); purchased Ambit Biosciences", "T6 sequence (O60674 849-1124 limits assumed)": "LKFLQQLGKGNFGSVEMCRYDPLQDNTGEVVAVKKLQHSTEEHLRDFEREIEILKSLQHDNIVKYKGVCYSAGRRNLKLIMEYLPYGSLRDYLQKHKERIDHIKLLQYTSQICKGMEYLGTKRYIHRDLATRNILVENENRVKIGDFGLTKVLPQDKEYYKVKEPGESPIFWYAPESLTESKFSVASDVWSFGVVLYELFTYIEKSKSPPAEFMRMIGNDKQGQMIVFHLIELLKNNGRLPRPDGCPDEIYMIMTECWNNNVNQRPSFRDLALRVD", "test": "In vitro kinase inhibition, Ambit Biosciences panel", "type": "binding", "details": "lower numbers indicate stronger activities", "protocol": "as §1, §2"}, "MLK1": {"molecular_target": "T7, MLK1 (Homo sapiens, UniProt P80192)", "T7 construct": "purchased Ambit Biosciences", "test": "In vitro kinase inhibition, Ambit Biosciences panel", "type": "binding", "details": "lower numbers indicate stronger activities", "protocol": "as §1, §2"}, "AXL": {"molecular_target": "T8, AXL (Homo sapiens, UniProt P30530)", "T8 construct": "purchased Ambit Biosciences", "T8 sequence (P30530 26-894)": "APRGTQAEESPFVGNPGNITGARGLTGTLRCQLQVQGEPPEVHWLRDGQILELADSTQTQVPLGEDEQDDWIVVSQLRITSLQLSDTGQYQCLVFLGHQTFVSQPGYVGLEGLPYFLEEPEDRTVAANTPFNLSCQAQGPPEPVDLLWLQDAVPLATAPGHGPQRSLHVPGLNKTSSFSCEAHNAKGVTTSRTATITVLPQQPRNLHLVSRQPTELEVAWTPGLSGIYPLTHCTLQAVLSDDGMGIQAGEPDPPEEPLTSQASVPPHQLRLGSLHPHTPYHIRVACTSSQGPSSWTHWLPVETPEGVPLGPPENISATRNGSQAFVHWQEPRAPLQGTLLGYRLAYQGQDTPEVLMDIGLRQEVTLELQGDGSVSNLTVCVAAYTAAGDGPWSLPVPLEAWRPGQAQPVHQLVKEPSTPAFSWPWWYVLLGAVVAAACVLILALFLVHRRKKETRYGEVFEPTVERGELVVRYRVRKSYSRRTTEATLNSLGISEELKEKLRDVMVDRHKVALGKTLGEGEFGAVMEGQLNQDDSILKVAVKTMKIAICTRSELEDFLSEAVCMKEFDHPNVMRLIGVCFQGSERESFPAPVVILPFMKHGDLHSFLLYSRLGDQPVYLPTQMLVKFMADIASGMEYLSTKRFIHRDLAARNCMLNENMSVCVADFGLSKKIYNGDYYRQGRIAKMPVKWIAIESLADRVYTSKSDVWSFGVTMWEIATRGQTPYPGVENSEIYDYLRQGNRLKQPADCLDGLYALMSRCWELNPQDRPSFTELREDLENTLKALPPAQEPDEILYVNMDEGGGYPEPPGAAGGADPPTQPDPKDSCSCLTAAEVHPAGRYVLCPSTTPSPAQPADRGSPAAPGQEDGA", "test": "In vitro kinase inhibition, Ambit Biosciences panel", "type": "binding", "details": "lower numbers indicate stronger activities", "protocol": "as §1, §2"}, "LRRK2(G2019S)": {"molecular_target": "T9, LRRK2(G2019S) (Homo sapiens, UniProt Q5S007, G2019S)", "T9 construct": "purchased Ambit Biosciences", "test": "In vitro kinase inhibition, Ambit Biosciences panel", "type": "binding", "details": "lower numbers indicate stronger activities", "protocol": "as §1, §2"}, "FAK": {"molecular_target": "T10, FAK (Homo sapiens, UniProt Q05397)", "T10 construct": "purchased Ambit Biosciences", "test": "In vitro kinase inhibition, Ambit Biosciences panel", "type": "binding", "details": "lower numbers indicate stronger activities", "protocol": "as §1, §2"}, "TAK1": {"molecular_target": "T11, TAK1 (Homo sapiens, UniProt O43318)", "T11 construct": "purchased Ambit Biosciences", "test": "In vitro kinase inhibition, Ambit Biosciences panel", "type": "binding", "details": "lower numbers indicate stronger activities", "protocol": "as §1, §2"}, "LRRK2": {"molecular_target": "T12, LRRK2 (Homo sapiens, UniProt Q5S007)", "T12 construct": "purchased Ambit Biosciences", "test": "In vitro kinase inhibition, Ambit Biosciences panel", "type": "binding", "details": "lower numbers indicate stronger activities", "protocol": "as §1, §2"}, "BMPR2": {"molecular_target": "T13, BMPR2 (Homo sapiens, UniProt Q13873)", "T13 construct": "purchased Ambit Biosciences", "test": "In vitro kinase inhibition, Ambit Biosciences panel", "type": "binding", "details": "lower numbers indicate stronger activities", "protocol": "as §1, §2"}, "LKB1": {"molecular_target": "T14, LKB1 (Homo sapiens, UniProt Q15831)", "T14 construct": "purchased Ambit Biosciences", "test": "In vitro kinase inhibition, Ambit Biosciences panel", "type": "binding", "details": "lower numbers indicate stronger activities", "protocol": "as §1, §2"}, "ALK": {"molecular_target": "T15, ALK (Homo sapiens, UniProt Q9UM73)", "T15 construct": "purchased Ambit Biosciences", "T15 sequence (Q9UM73 19-1620)": "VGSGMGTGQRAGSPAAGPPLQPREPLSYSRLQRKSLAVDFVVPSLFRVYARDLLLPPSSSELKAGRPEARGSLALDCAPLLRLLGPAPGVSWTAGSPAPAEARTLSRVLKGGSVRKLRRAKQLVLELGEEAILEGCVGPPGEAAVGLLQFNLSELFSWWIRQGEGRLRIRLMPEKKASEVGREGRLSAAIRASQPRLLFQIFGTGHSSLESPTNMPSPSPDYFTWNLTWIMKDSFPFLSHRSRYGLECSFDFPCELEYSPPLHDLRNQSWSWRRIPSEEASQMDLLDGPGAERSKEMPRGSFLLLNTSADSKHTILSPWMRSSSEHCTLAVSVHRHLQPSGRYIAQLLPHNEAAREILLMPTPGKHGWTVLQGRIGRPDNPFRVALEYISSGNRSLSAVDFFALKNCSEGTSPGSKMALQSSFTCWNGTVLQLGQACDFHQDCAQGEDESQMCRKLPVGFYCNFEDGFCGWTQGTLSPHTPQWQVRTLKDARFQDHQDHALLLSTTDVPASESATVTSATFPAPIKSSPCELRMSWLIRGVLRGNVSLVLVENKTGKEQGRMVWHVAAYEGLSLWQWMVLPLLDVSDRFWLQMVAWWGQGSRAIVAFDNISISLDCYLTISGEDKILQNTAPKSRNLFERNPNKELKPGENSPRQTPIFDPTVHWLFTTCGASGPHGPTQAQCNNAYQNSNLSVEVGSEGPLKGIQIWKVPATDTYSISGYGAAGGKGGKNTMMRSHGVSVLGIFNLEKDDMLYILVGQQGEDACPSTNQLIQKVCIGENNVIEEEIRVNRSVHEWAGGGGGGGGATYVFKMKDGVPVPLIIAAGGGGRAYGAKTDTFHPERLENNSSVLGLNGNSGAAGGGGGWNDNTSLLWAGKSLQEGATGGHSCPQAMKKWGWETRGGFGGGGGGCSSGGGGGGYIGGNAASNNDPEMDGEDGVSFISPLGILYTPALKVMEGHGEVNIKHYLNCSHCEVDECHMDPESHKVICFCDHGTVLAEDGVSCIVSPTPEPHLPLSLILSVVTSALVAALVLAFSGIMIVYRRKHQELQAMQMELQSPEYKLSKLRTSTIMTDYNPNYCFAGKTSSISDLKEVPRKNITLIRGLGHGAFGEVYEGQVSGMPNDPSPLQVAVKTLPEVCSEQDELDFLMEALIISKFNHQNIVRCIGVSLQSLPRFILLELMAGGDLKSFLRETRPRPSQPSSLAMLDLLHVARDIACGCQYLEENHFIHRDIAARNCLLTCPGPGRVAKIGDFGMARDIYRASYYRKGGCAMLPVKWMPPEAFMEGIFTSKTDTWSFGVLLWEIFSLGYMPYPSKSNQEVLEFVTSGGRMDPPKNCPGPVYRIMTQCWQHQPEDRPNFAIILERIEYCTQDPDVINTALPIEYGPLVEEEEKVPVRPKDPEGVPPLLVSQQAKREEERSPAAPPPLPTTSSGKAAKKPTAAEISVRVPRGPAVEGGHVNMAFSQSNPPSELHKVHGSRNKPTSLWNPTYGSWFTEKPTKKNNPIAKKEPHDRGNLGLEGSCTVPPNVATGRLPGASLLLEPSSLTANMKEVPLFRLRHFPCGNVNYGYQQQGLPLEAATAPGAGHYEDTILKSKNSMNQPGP", "test": "In vitro kinase inhibition, Ambit Biosciences panel", "type": "binding", "details": "lower numbers indicate stronger activities", "protocol": "as §1, §2"}, "FLT3": {"molecular_target": "T16, FLT3 (Homo sapiens, UniProt P36888)", "T16 construct": "purchased Ambit Biosciences", "test": "In vitro kinase inhibition, Ambit Biosciences panel", "type": "binding", "details": "lower numbers indicate stronger activities", "protocol": "as §1, §2"}, "JNK3": {"molecular_target": "T17, JNK3 (Homo sapiens, UniProt P53779)", "T17 construct": "purchased Ambit Biosciences", "test": "In vitro kinase inhibition, Ambit Biosciences panel", "type": "binding", "details": "lower numbers indicate stronger activities", "protocol": "as §1, §2"}, "KIT(D816V)": {"molecular_target": "T18, KIT(D816V) (Homo sapiens, UniProt P10721, D816V)", "T18 construct": "purchased Ambit Biosciences", "T18 sequence (P10721 26-976 D816V)": "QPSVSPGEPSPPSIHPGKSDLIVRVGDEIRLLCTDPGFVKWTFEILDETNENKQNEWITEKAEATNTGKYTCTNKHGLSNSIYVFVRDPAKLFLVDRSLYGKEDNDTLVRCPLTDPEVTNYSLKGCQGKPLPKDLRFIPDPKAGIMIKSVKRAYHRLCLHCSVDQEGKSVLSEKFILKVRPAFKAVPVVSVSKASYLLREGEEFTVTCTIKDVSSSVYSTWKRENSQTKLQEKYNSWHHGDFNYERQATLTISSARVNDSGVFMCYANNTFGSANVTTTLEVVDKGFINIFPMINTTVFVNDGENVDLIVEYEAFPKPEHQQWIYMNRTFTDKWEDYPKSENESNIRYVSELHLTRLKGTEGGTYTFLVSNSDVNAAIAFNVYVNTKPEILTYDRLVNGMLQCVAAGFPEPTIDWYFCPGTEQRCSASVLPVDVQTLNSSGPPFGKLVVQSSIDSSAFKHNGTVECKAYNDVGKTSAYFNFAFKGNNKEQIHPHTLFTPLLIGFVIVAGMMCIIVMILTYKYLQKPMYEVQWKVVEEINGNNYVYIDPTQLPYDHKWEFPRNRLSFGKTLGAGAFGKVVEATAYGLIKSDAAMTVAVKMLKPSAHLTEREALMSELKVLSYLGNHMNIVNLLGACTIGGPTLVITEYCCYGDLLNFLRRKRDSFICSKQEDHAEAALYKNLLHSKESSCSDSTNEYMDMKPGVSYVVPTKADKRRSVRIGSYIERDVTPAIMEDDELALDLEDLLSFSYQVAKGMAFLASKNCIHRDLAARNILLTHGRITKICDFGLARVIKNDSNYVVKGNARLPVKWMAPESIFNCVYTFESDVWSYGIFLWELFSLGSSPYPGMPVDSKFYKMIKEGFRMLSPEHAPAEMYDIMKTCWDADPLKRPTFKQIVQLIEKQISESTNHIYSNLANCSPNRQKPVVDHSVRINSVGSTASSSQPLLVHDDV", "test": "In vitro kinase inhibition, Ambit Biosciences panel", "type": "binding", "details": "lower numbers indicate stronger activities", "protocol": "as §1, §2"}, "PDGFRB": {"molecular_target": "T19, PDGFRB (Homo sapiens, UniProt P09619)", "T19 construct": "purchased Ambit Biosciences", "T19 sequence (P09619 33-1106)": "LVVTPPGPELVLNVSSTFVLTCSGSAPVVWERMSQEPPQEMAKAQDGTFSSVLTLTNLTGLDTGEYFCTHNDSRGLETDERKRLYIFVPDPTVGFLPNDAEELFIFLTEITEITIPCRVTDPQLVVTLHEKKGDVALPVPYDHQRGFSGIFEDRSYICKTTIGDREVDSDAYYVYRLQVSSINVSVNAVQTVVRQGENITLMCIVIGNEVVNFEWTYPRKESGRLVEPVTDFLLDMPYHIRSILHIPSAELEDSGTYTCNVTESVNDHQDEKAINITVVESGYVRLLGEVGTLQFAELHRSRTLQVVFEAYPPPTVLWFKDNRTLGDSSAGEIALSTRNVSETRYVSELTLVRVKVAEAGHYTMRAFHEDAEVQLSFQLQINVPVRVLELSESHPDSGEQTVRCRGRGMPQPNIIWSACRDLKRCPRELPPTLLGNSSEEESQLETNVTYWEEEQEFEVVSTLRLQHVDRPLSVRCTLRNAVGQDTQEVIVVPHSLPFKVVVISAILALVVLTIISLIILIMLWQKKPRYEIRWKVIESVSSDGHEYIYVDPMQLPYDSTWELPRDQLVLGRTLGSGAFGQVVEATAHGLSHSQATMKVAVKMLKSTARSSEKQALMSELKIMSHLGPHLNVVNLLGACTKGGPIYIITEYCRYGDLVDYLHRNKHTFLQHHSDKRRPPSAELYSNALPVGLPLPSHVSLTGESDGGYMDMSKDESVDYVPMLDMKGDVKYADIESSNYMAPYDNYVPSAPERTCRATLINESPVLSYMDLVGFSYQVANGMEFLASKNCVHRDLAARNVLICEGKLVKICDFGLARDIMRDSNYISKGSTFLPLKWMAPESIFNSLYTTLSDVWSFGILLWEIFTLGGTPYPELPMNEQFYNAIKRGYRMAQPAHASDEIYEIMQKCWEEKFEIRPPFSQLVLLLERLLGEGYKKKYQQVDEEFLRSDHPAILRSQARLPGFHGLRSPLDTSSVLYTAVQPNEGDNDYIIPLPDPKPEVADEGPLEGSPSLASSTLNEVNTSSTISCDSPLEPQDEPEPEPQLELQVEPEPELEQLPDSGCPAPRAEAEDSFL", "test": "In vitro kinase inhibition, Ambit Biosciences panel", "type": "binding", "details": "lower numbers indicate stronger activities", "protocol": "as §1, §2"}}, "data": [{"molecule": "O=c1[nH]ccc2nc(N3CCC(O)CC3)nc(Nc3cccc(C(F)(F)F)c3)c12", "note": "[Compound 6, 2-(4-hydroxypiperidin-1-yl)-4-(3-(trifluoromethyl)phenylamino)pyrido[4,3-d]pyrimidine-5(6H)-one]", "values": [{"measurement": "inhibition at 1 µM", "setting": "human PIM1", "value": 32, "unit": "%"}, {"measurement": "TGI", "setting": "HS 578T", "value": 14.1, "unit": "µM"}, {"measurement": "GI50", "setting": "HS 578T; Homo sapiens", "value": 1.95, "unit": "µM"}, {"measurement": "IC50", "setting": "HS 578T; Homo sapiens", "value": 43.7, "unit": "µM"}, {"measurement": "CC50", "setting": "HS 578T; Homo sapiens, read-out: LC50 (the source's name)", "value": 100, "unit": "µM"}, {"measurement": "% inhibition (reported as percent control)", "setting": "CSF1R", "value": 5.2, "unit": "%"}, {"measurement": "% inhibition (reported as percent control)", "setting": "PLK4", "value": 13, "unit": "%"}, {"measurement": "% inhibition (reported as percent control)", "setting": "RSK2", "value": 18, "unit": "%"}, {"measurement": "% inhibition (reported as percent control)", "setting": "RET", "value": 16, "unit": "%"}, {"measurement": "% inhibition (reported as percent control)", "setting": "JAK2", "value": 3, "unit": "%"}, {"measurement": "% inhibition (reported as percent control)", "setting": "MLK1", "value": 2.8, "unit": "%"}, {"measurement": "% inhibition (reported as percent control)", "setting": "AXL", "value": 11, "unit": "%"}, {"measurement": "% inhibition (reported as percent control)", "setting": "LRRK2(G2019S)", "value": 2.2, "unit": "%"}, {"measurement": "% inhibition (reported as percent control)", "setting": "FAK", "value": 34, "unit": "%"}, {"measurement": "% inhibition (reported as percent control)", "setting": "TAK1", "value": 1, "unit": "%"}, {"measurement": "% inhibition (reported as percent control)", "setting": "LRRK2", "value": 2.2, "unit": "%"}, {"measurement": "% inhibition (reported as percent control)", "setting": "BMPR2", "value": 0, "unit": "%"}, {"measurement": "% inhibition (reported as percent control)", "setting": "LKB1", "value": 18, "unit": "%"}, {"measurement": "Percent of control (lower = stronger binding)", "setting": "ALK", "value": 29, "unit": "%"}, {"measurement": "% inhibition (reported as percent control)", "setting": "FLT3", "value": 28, "unit": "%"}, {"measurement": "% inhibition (reported as percent control)", "setting": "JNK3", "value": 7, "unit": "%"}, {"measurement": "% inhibition (reported as percent control)", "setting": "KIT(D816V)", "value": 9.3, "unit": "%"}, {"measurement": "% inhibition (reported as percent control)", "setting": "PDGFRB", "value": 19, "unit": "%"}]}]}
